Test results from patent US20100137248A1, “BORON-CONTAINING COMPOUNDS, USES AND PREPARATION THEREOF” (DINOTEC INC., priority 2007, published 2010).

System: pain and/or inflammation in volunteers
Experiment: Tests on various subjects using Composition 2 (pain and/or inflammation)
Assay type: in vivo
Details: past medication of volunteers; testimony
Procedure: Composition 2 was tested on several subjects so as to verify its activity as anti-inflammatory agent and/or analgesic. As it can be seen from Table 1, test subjects having various inflammations or pain have been treated with Composition 2. In each case, a small amount of Composition 2, in the form of a cream, was applied to inflamed skin area by means of a short gentle rub.

CC(=O)Oc1ccccc1C(=O)O [Aspirin, acetylsalicylic acid]
gastric side effect reported by volunteers: severe gastric burning sensation
